The record followed here is US20220096449A1, “METHOD OF TREATMENT WITH TRADIPITANT” (Vanda Pharmaceuticals Inc., priority 2018, published 2022).

Molecules are shown by their SMILES. Marks after values point to notes of the source that are not given here.

For this test, the system named is apomorphine-induced emesis. The experiment in a line: Apomorphine emetic challenge in beagle dogs. It is filed as in vivo, beagle dog. As to conditions: 3.0 mg/kg oral, apomorphine 0.1 mg/kg iv 2 hours later, 5 dogs. How it is done:
Over the five (5) weeks of the study, each animal receives each of the treatments, but only one per week. The purpose of this study is to determine if tradipitant suppresses apomorphine-induced emesis.
All animals are dosed over a period of five (5) weeks, with each dog receiving one of five different treatments on each day of dosing.
All dogs are fasted overnight prior to each treatment day and then fed approximately one (1) hour after oral dosing (approximately one (1) hour prior to administration of apomorphine). Individual doses are adjusted weekly for changes in body weight.
The dose regimen consists of a 5×5 Latin square design, in which each subject receives 1 dose or dose combination per week (6 day washout) as shown in Table 3 below.

On to `C[C@@H](O[C@H]1OCCN(Cc2n[nH]c(=O)[nH]2)[C@H]1c1ccc(F)cc1)c1cc(C(F)(F)F)cc(C(F)(F)F)c1` [Aprepitant, reference compound], for which the “Total No. Emetic Episodes” value was 1**.
